Consider 1 molecule from article PMC9320886, “Daily Intraperitoneal Administration of Rosiglitazone Does Not Improve Lung Function or Alveolarization in Preterm Rabbits Exposed to Hyperoxia” (Pharmaceutics, 2022).

Series [1] concerns preterm rabbits exposed to hyperoxia. As to the kind of experiment: pulmonary efficacy, daily intraperitoneal 10 mg/kg, preterm rabbits exposed to hyperoxia. Particulars: daily i.p. 10 mg/kg. In kind it is in vivo, rabbit. The protocol: At Day 7, invasive lung function testing was performed using the forced oscillation technique with the flexiVent^TM apparatus (SCIREQ, Montréal, Canada). Pups were anesthetized with intramuscular ketamine (35 mg/kg) and xylazine (6 mg/kg) before a tracheostomy was performed, and an 18-gauge metal needle was inserted in the trachea and tied. Pups were connected to the volume-controlled mechanical ventilation of the flexiVent^TM (SCIREQ, tidal volume 10 mL/kg, frequency of 120 breaths/min, PEEP of 3 cmH2O). All pups were euthanized with a pentothal sodium overdose.
The following parameters were measured: total inspiratory capacity, resistance of the respiratory system (Rrs), lung tissue damping (G), lung tissue elastance (H), and static compliance (Cst). Three consistent measurements were obtained, with a coefficient of determination >0.95 as the limit to accept the measurement. The average of three measurements was calculated and used in the analysis.
At necropsy, lungs were removed en bloc and a 20-gauge catheter was secured inside the trachea. Lungs were fixed with 10% buffered formalin (Sigma-Aldrich) for at least 4 h under constant pressure (25 cmH2O) using a custom-made fixation device to ensure homogenous fixation pressures. After removal from pressure fixation, the lungs were first left in formalin for at least 24 h and then transferred to 70% ethanol.
The left lung and the right lungs were embedded in paraffin, cut, and stained with hematoxylin and eosin (H&E) following standard histology protocols. The radial alveolar count (RAC) was performed by an expert pathologist blinded to the experimental design by drawing a perpendicular line from the lumen of the terminal bronchiole to the nearest connective tissue septum or pleural margin and the number of saccules or alveoli crossed by this line was counted as previously described. In total, 20 measurements were performed for each lung pair.
An independent experimental session investigated the efficacy of RGZ at a higher dose (10 mg/kg). In total, 36 preterm rabbits with a GA of 28 days delivered from 4 does were randomized to either the control group (n = 18) or the RGZ 10 mg/kg group (n = 18 per group). Hyperoxia exposure, RGZ administration, animal care and feeding procedures, lung function testing, RAC, and sample collection were performed as described above.

In series [2] the test system is patients with type 2 diabetes. Particulars: cited from earlier work.
Series [3] can be described thus: plasma protein binding by equilibrium dialysis. It counts as in vitro ADME. The conditions noted are these: both sexes, New Zealand White, preterm rabbit plasma (pooled), 37 °C. Also on record: fraction unbound at 4 h: dose or concentration left out as unconfirmed. The protocol: In vitro plasma protein binding was determined in preterm rabbit plasma (New Zealand White Pooled Gender, BIOIVT, Hicksville, NY, USA) by equilibrium dialysis using Thermo Fisher Scientific Pierce RED rapid equilibrium dialysis devices (Device Inserts 8K MWCO, Thermo Fisher Scientific, Waltham, MA, USA). The assay was performed using a Tecan Evoware robotic system (Männedorf, Switzerland). Test compounds and the positive control were diluted in the pooled plasma (three donors) to a final concentration of […] and then dispensed into the red chamber of the RED device inserts. Phosphate-Buffered Saline (PBS, from Merck KGaA, Darmstadt, Germany) was dispensed into the other side. Upon completion of 4 h of incubation (37 °C under shaking), equal aliquots were removed from each chamber and matrix matched with even volumes of plasma or buffer for LC-MS/MS analyses.
Free and Bound percentages of the compounds were calculated as follows:(1) %Free=Area buffer sample/Area plasma sample×100 (2) % Bound=100−%Free

Series [4] relates to preterm rabbits exposed to hyperoxia. As to the kind of experiment: quantification of blood lipid levels. It counts as in vivo, rabbit. How it is done: Whole blood samples from pups in the RGZ (1 and 10 mg/kg groups) and control groups (n = 6 per group) were obtained though cardiac puncture. Briefly, a 22G needle was inserted into the left ventricle and approximately 1.5 mL of whole blood were collected in K2-EDTA tubes and stored on ice. Within 60 min after blood draw, samples were centrifuged at 1500× g for 15 min and the […] was immediately stored at −80 °C. At the day of quantification, samples were gently thawed overnight at 4 °C and the level of triglycerides (TG), total cholesterol, high-density cholesterol (HDL), and non-HDL were determined using a Cobas 8000 modular analyzer (Roche).

The nature of series [5]: pharmacokinetic profiling in preterm rabbits. It counts as in vivo, rabbit.
Series [6] deals with premature rabbit pups with intraventricular hemorrhage. Also on record: method as in PMID 34462350. Particulars: twice-daily 0.1 mg/kg; cited from earlier work.
On the set-up of series [7]: method as in PMID 19484746. The conditions noted are these: PND 13 mice, chow of nursing mice with 2.5–10 mg/kg of RGZ; cited from earlier work.
Series [8] concerns newborn rats. Also on record: method as in PMID 19262292. The conditions noted are these: single (24 h) and repeated (7 days) administration, 0.1–8 mg/kg; cited from earlier work.
Setting [9] is: daily 1 mg/kg, PND 7, vs vehicle, p < 0.01.
Setting [10] is: rabbit, inhaled or intranasal, lung, intratracheal 1 mg/kg.

Molecules are shown by their SMILES.

A word on the fraction unbound: it is the share of the substance not bound to proteins or other matrix. One may read the Cmax as the maximum level reached in the sampled fluid or tissue. Broadly, the Tmax is the time from dosing to the highest level. As usually defined, the half-life is the time needed for the level to fall by half in the phase considered. The term AUC(0-t) denotes exposure summed from dosing to a finite time, without extrapolation to infinity.

For `CN(CCOc1ccc(CC2SC(=O)NC2=O)cc1)c1ccccn1` (stereo not drawn) [RGZ, rosiglitazone], the plasma appearance entry in series [1] was “white, dense appearance”. The RAC entry in series [1] (PND 7, vs vehicle) is on record as “no difference between groups”. In addition, in series [1] (PND 7, vs vehicle, p < 0.01), the inspiratory capacity entry is given as “significantly lower” and the “lung compliance (Cst)” value is “significantly lower”. Further, in series [1] (vs vehicle), the mortality result is given as “similar”. Moreover, the “plasma triglycerides, large- and medium-sized lipoproteins, low- and high-density cholesterol” value in series [2] (adult patients with type 2 diabetes and dyslipidemia) was “increases”. Also, the “risk of heart failure and cardiovascular mortality” value in series [2] (diabetic patients) is “increases the risk”. The fraction unbound at 4 h in series [3] is 0.025. In series [4] (setting [9]), the “serum non-HDL” value is “significantly increased” and the serum total cholesterol entry is “significantly increased”. In series [4] (daily 1 mg/kg, PND 7, vs vehicle, p < 0.05), the serum triglycerides entry is reported as “significantly increased”. The serum lipids result in series [4] (daily 10 mg/kg, PND 7, p < 0.0001 for all lipids) is on record as “aberrant modulation”. For the same molecule, in series [5] (intratracheal or intraperitoneal 1 mg/kg), the “detectability in plasma and lung” value is “detectable levels in both compartments up to 24 h”. Also, the time of peak in series [5] (plasma and lung tissue, irrespective of the administration method, 1 mg/kg) worked out at 0.25 h. For the same molecule, in series [5] (setting [10]), the Cmax came to 1070 ng/g and the Tmax turned out to be 15 min. Moreover, the half-life in series [5] (rabbit, inhaled or intranasal, plasma, intratracheal 1 mg/kg) is 900 min. The Tmax in series [5] (rabbit, ip, lung, intraperitoneal 1 mg/kg) was 15 min. The AUC(0-t) in series [5] (rabbit, ip, plasma, intraperitoneal 1 mg/kg) came to 29.5 µg·h/mL. Moreover, the Kp in series [5] (rabbit, lung and plasma, inhaled or intranasal, intratracheal 1 mg/kg, read-out: AUCLung/AUCPlasma) was 0.7. Besides, the concentration at 24 h in series [5] (rabbit, plasma and lung, ip, 24 h after intraperitoneal administration, 1 mg/kg, read-out: levels in plasma and lung) is greater than 0.5 µg/mL. Further, the “myelination and neurological recovery” value in series [6] was “improved”. In addition, the “RGZ in the lung tissue” value in series [7] is 90.7 pg/g. Moreover, the “serum cholesterol and triglycerides levels” value in series [8] is reported as “remained unchanged”.
